Measured values reported in patent US20020137891A1, “Protein scaffold and its use to multimerise monomeric polypeptides” (priority 1999, published 2002).

Columns and labels:
[1] = tested on: mutant Huntingdon exon 1-expressing PC12 and SH-SY5Y cells; assay: Inclusion formation and cell death in mutant Huntingdon exon 1-expressing cells on overexpression of chaperones; type: cell-based
From the text: These phenomena have been studied by transiently transfecting part of Huntingdon exon 1 in COS-7, PC12, and SH-SY5Y cells. Inclusion formation was not seen with constructs expressing 23 glutamines but was repeat length and time dependent for mutant constructs with 43-74 repeats. HSP70, HSP40, the 20S proteasome and ubiquitin colocalized with inclusions. […] Thus, inclusion formation may be enhanced in polyglutamine diseases, if the pathological process results in proteasome inhibition or a heat-shock response. […] To our knowledge, this is the first report of an HSP increasing aggregation of an abnormally folded protein in mammalian cells and expands the current understanding of the roles of HDJ-2yHSDJ in protein folding (See Wyttenbach, A. et al. (2000) Proc. Natl. Acad. Sci. USA 97, 2899-2903).
We have tested MC72 in the same system.

bacteriophage T4 (T4D0) = assay: Growth (plaque formation) of bacteriophage T4 at 37° C. in transformed wild-type and groEL mutant strains; type: cell-based, E. coli; parameters: key: +++: normal plaque-forming ability relative to wild-type groEL^+ strain, in terms of both number and size; ++: 5-fold fewer plaques relative to wild-type groEL^+ strain, or both; 10-fold fewer plaques, or plaque size reduced relative to wild-type groEL^+ strain, or both; +/−: 10^2-fold fewer plaques and plaque size reduced relative to wild-type groEL^+ strain; no visible plaques (<10^−4); conditions: pJC plasmid
From the text: Bacterial and bacteriophage strains. The E. coli strains used in this study were: C41(DE3), a mutant of BL21(DE3) capable of expressing toxic genes (Miroux, B. & Walker, J. E. (1996) J. Mol. Biol. 260, 289-298); SV2 (B178groEL44), SV3 (B178groEL59) and SV6 (B178groEL673): isogenic strains carrying temperature-sensitive alleles of groEL; SV1(=B178) (Georgopoulos, C., Hendrix, R. W., Casjens, S. R. & Kaiser, A. D. (1973) J. Mol. Biol. 76, 45-60), AI90 (ΔgroEL::kan^R) [pBAD-EL] (Ivic, A., Olden, D., Wallington, E. J. & Lund, P. A. (1997) Gene 194, 1-8), and TG1 (Gibson, T. J. (1984) Ph.D. thesis, University of Cambridge, U.K). Bacteriophage λb2cI (Zeilstra-Ryalls, J., Fayet, O., Baird, L. & Georgopoulos, C. (1993) J. Bacteriol. 175, 1134-1143) was used according to standard methods (Arber, W., Enquist, L., Hohn, B., Murray, N. E. & Murray, K. (1983) in Lambda II., ed. R. W. Hendrix, J. W. r., F. W. Stahl and R. A. Weisberg (Cold Spring Harbor Laboratory, Cold Spring Harbor, N.Y.), pp. 433-466); plaque formation was assayed at 30° C. T4D0, a derivative of bacteriophage T4 (Zeilstra-Ryalls, J., Fayet, O., Baird, L. & Georgopoulos, C. (1993) J. Bacteriol. 175, 1134-1143), was used according to standard methods (Karam, J. D. (1994) Molecular biology of bacteriophage T4. (American Society for Microbiology, Washington, D.C.)); plaque formation was assayed at 37° C.
Bacteriophage λ requires the chaperonins GroES and GroEL for protein folding during morphogenesis; bacteriophage T4 requires GroEL and Gp31, the latter being encoded by the bacteriophage genome (Zeilstra-Ryalls, J., Fayet, O. & Georgopoulos, C. (1991) Annu. Rev. Microbiol. 45, 301-325). Nine groE alleles which fail to support λ growth have been sequenced (Zeilstra-Ryalls, J., Fayet, O., Baird, L. & Georgopoulos, C. (1993) J. Bacteriol. 175, 1134-1143). We examined the ability of MC7, over-expressed from the constitutive tet promoter on a high-copy number vector (see FIG. 2), to complement three mutant groEL alleles for plaque formation by λ (b2cI) at 30° C. (Table 3) and T4 at 37° C. (Table 4).

[2] = tested on: AI90 (ΔgroEL::kan^R) [pBADEL] E. coli strain; assay: Plating ability of transformed AI90 (ΔgroEL::kan^R) [pBAD-EL] at 37° C. on depletion of GroEL; type: cell-based
Procedure: AI90 (ΔgroEL::kan^R) [pBAD-EL] cells were transformed with the pJC vector series. Transformants were selected at 37° C. on LB supplemented with 50 μg.ml^−1 of kanamycin, 120 μg.mL^−1 of ampicillin, 25 μg.mL^1 of chloramphenicol and 0.2% L(+)arabinose. Depletion of GroEL protein was analysed at 37° C. by plating the same quantity of AI90 [pBAD-EL+pJC vectors] cells on LB plates containing 1% D(+)glucose or various amount of arabinose.
Each experiment was performed in triplicate. Plasmids carrying no groE genes or encoding the GroE proteins were used as negative or positive controls, respectively.

SV2 [pBADGroES] = conditions: SV2 over-expressing GroES from pBAD
anti-GroEL antibodies = assay: Anti-GroEL antibodies binding by ELISA; parameters: species or system rabbit; conditions: direct and indirect ELISA, different concentrations of antibodies, FIG. 6
Procedure: Anti-GroEL antibodies binding by ELISA. The same amount of proteins (1 μg) were coated as described above. […] ELISAs were developed as described above.

[3] = tested on: Lorist6 (bacteriophage λ origin vector); assay: Effect of over-expression on Lorist6 replication; type: cell-based, E. coli; conditions: over-expression from pJC vectors in TG1 or SV1
Procedure: Effect on Lorist6 replication of over-expressing of MC7. The effect of over-expressing Gp31 proteins from pJC vector series on the replication of the bacteriophage λ origin vector, Lorist6 (Gibson, T. J., Rosenthal, A. & Waterston, R. H. (1987) Gene 53, 283-286) in TG1 (Gibson, T. J. (1984) Ph.D. thesis, University of Cambridge, U.K) or SV1 (Georgopoulos, C., Hendrix, R. W., Casjens, S. R. & Kaiser, A. D. (1973) J. Mol. Biol. 76, 45-60) cells was determined essentially as described (Chatellier, J., Hill, F., Lund, P. & Fersht, A. R. (1998) Proc. Natl. Acad. Sci. U.S.A. 95, 9861-9866).

GroEL (1-548): E. coli molecular chaperone, 14 subunits of 57.5 kD in two seven membered rings [reference compound]
cell death [1]: had no effect | inclusion formation [1]: had no effect | Growth of bacteriophage T4, SV1 (groEL^+) (bacteriophage T4 (T4D0)): +++ | Growth of bacteriophage T4, SV2 groEL44 (bacteriophage T4 (T4D0)): +++ | Growth of bacteriophage T4, SV3 groEL59 (bacteriophage T4 (T4D0)): +++ | Growth of bacteriophage T4, SV6 groEL673 (bacteriophage T4 (T4D0)): +++ | Plating ability ([2]; 0.00 % L(+)arabinose): +++ (growth identical to that in presence of 0.2% L(+)arabinose (100%), in terms of both number and size) | Plating ability ([2]; 0.01 % L(+)arabinose): +++ (growth identical to that in presence of 0.2% L(+)arabinose (100%), in terms of both number and size) | Plating ability ([2]; 0.10 % L(+)arabinose): +++ (growth identical to that in presence of 0.2% L(+)arabinose (100%), in terms of both number and size) | Plating ability ([2]; 0.15 % L(+)arabinose): +++ (growth identical to that in presence of 0.2% L(+)arabinose (100%), in terms of both number and size) | Plaque size and number (SV2 [pBADGroES]): do not completely eliminate them | Detection by antibodies specific to GroEL (anti-GroEL antibodies): comparable detection levels | Replication of the Lorist6 plasmid [3]: inhibit the replication of the Lorist6 plasmid
